According to US12606566B2, “Substituted cyclopenta[4,5]pyrrolo[1,2-a]pyrazines as bruton's tyrosine kinase inhibitors” (Shanghai Synergy Pharmaceutical Sciences Co., Ltd., priority 2020, dated 2026):

Experiments:
[1] = tested on: tumour cells (A20 5E6 cells); assay: Inhibitory effect on tumour cell proliferation (CCK8); type: cell-based; conditions: CCK8 absorbance, read-out: Inhibitory effect of the compound on cell proliferation IC50
Procedure: This experiment was to determine the effect of the compound on cell proliferation.
To determine the inhibitory effect of the compound on the proliferation of tumour cells, tumour cells (A20 5E6 cells) were cultured to a certain amount and seeded into 96-well plates. […] The absorbance value was measured after the addition of CCK8 and 2 h incubation to determine the inhibitory effect of the compound on cell proliferation. The IC50 value of the compound was obtained by data fitted with Graphpad.

BTK kinase = BTK kinase (Homo sapiens, UniProt Q06187); assay: BTK kinase inhibitory activity, mobility shift method; type: biochemical; conditions: compound co-incubated with the enzyme for 30 minutes
BTK kinase, sequence (Q06187 whole entry): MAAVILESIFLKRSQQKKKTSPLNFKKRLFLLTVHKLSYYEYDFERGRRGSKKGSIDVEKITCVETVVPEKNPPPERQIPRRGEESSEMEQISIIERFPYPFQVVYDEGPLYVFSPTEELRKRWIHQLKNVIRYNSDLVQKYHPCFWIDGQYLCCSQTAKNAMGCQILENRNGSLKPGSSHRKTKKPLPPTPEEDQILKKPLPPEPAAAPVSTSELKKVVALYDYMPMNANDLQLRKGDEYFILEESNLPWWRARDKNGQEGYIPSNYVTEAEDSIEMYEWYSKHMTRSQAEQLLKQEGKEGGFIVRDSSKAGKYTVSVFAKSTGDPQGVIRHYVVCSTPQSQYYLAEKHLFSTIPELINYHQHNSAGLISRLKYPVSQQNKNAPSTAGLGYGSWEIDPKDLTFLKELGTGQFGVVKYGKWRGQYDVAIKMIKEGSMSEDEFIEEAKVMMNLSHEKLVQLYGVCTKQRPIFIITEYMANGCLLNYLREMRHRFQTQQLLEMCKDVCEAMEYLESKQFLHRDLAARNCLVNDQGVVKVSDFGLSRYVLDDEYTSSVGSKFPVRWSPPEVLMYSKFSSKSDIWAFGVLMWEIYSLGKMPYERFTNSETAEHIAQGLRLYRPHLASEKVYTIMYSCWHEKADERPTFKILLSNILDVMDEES
Procedure: The BTK kinase inhibitory activity of the compound was determined using a mobility shift method with the reaction system (kinase solution, ATP, kinase substrate2). The compound was co-incubated with the enzyme for 30 minutes, and then the conversion rate was read using the Caliper EZ reader. The compound inhibition rate was determined using the calculation formula and the data was fitted using Graphpad to derive the IC50 value for the compounds of this application.

SMILES	IC50 [1] [nM]	IC50 (BTK kinase) [nM]
C[C@H]1CN(C2COC2)CCN1c1ccc(Nc2cc(-c3ccnc(N4CCn5c6c(c(F)c5C4=O)CC(C)(C)C6)c3CO)cn(C)c2=O)nc1 [Example H01, (S)-9-fluoro-2-(3′-(hydroxymethyl)-1-methyl-5-((5-(2-methyl-4-(oxetan-3-yl)piperazin-1-yl)pyridin-2-yl)amino)-6-oxo-1,6-dihydro-[3,4′-bipyridin]-2′-yl)-7,7-dimethyl-3,4,7,8-tetrahydro-2H-cyclopenta[4,5]pyrrolo[1,2-a]pyrazin-1(6H)-one]	24	0.23
C[C@H]1CN(C2COC2)CCN1c1ccc(Nc2cc(-c3ccnc(N4CCn5c6c(c(Cl)c5C4=O)CC(C)(C)C6)c3CO)cn(C)c2=O)nc1 [Example H02, (S)-9-chloro-2-(3′-(hydroxymethyl)-1-methyl-5-((5-(2-methyl-4-(oxetan-3-yl)piperazin-1-yl)pyridin-2-yl)amino)-6-oxo-1,6-dihydro-[3,4′-bipyridin]-2′-yl)-7,7-dimethyl-3,4,7,8-tetrahydro-2H-cyclopenta[4,5]pyrrolo[1,2-a]pyrazin-1(6H)-one]	23	0.59
Cc1c2c(n3c1C(=O)N(c1nccc(-c4cc(Nc5ccc(N6CCN(C7COC7)C[C@@H]6C)cn5)c(=O)n(C)c4)c1CO)CC3)CC(C)(C)C2 [Example H03, (S)-2-(3′-(hydroxymethyl)-1-methyl-5-((5-(2-methyl-4-(oxetan-3-yl)piperazin-1-yl)pyridin-2-yl)amino)-6-oxo-1,6-dihydro-[3,4′-bipyridin]-2′-yl)-7,7,9-trimethyl-3,4,7,8-tetrahydro-2H-cyclopenta[4,5]pyrrolo[1,2-a]pyrazin-1(6H)-one]	61	0.14
CN1CCN(c2ccc(Nc3cc(-c4ccnc(N5CCn6c(cc7c6CC(C)(C)C7)C5=O)c4CO)nc4ccoc34)nc2)CC1 [Example H08, 2-(3-(hydroxymethyl)-4-(7-((5-(4-methylpiperazin-1-yl)pyridin-2-yl)amino)furo[3,2-b]pyridin-5-yl)pyridin-2-yl)-7,7-dimethyl-3,4,7,8-tetrahydro-2H-cyclopenta[4,5]pyrrolo[1,2-a]pyrazin-1(6H)-one]	29	0.23
CC1(C)Cc2cc3n(c2C1)CCN(c1nccc(-c2cc(Nc4ccc(N5CCN(C6COC6)CC5)cn4)c4occc4n2)c1CO)C3=O [Example H09, 2-(3-(hydroxymethyl)-4-(7-((5-(4-(oxetan-3-yl)piperazin-1-yl)pyridin-2-yl)amino)furo[3,2-b]pyridin-5-yl)pyridin-2-yl)-7,7-dimethyl-3,4,7,8-tetrahydro-2H-cyclopenta[4,5]pyrrolo[1,2-a]pyrazin-1(6H)-one]	31	0.71
Cn1cc(-c2ccnc(N3CCn4c5c(c(F)c4C3=O)CC(C)(C)C5)c2CO)cc(Nc2ccc(N3CCN(C4COC4)CC3)cn2)c1=O [Example H10, 9-fluoro-2-(3′-(hydroxymethyl)-1-methyl-5-((5-(4-(oxetan-3-yl)piperazin-1-yl)pyridin-2-yl)amino)-6-oxo-1,6-dihydro-[3,4′-bipyridin]-2′-yl)-7,7-dimethyl-3,4,7,8-tetrahydro-2H-cyclopenta[4,5]pyrrolo[1,2-a]pyrazin-1(6H)-one]	21	0.21
C[C@H]1CN(C2COC2)CCN1c1ccc(Nc2cc(-c3ccnc(N4CCn5c6c(c(C(F)(F)F)c5C4=O)CC(C)(C)C6)c3CO)cn(C)c2=O)nc1 [Example H19, (S)-2-(3′-(hydroxymethyl)-1-methyl-5-((5-(2-methyl-4-(oxetan-3-yl)piperazin-1-yl)pyridin-2-yl)amino)-6-oxo-1,6-dihydro-[3,4′-bipyridin]-2′-yl)-7,7-dimethyl-9-(trifluoromethyl)-3,4,7,8-hexahydro-2H-cyclopenta[4,5]pyrrolo[1,2-a]pyrazine-1(6H)-one]		0.52
CCOc1c2c(n3c1C(=O)N(c1nccc(-c4cc(Nc5ccc(N6CCN(C7COC7)C[C@@H]6C)cn5)c(=O)n(C)c4)c1CO)CC3)CC(C)(C)C2 [Example H20, (S)-9-ethoxy-2-(3′-(hydroxymethyl)-1-methyl-5-((5-(2-methyl-4-(oxetan-3-yl)piperazin-1-yl)pyridin-2-yl)amino)-6-oxo-1,6-dihydro-[3,4′-bipyridyl]-2′-yl)-7,7-dimethyl-3,4,7,8-tetrahydro-2H-cyclopenta[4,5]pyrrolo[1,2-a]pyrazin-1(6H)-one]		0.55
C[C@H]1CN(C2COC2)CCN1c1ccc(Nc2cc(-c3ccnc(N4CCn5c6c(c(OC7CC7)c5C4=O)CC(C)(C)C6)c3CO)cn(C)c2=O)nc1 [Example H23, (S)-9-cyclopropoxy-2-(3′-(hydroxymethyl)-1-methyl-5-((5-(2-methyl-4-(oxetan-3-yl)piperazin-1-yl)pyridin-2-yl)amino)-6-oxo-1,6-dihydro-[3,4′-bipyridin]-2′-yl)-7,7-dimethyl-3,4,7,8-tetrahydro-2H-cyclopenta[4,5]pyrrolo[1,2-a]pyrazin-1(6H)-one]		0.51
CC(C)Oc1c2c(n3c1C(=O)N(c1nccc(-c4cc(Nc5ccc(N6CCN(C7COC7)C[C@@H]6C)cn5)c(=O)n(C)c4)c1CO)CC3)CC(C)(C)C2 [Example H24, (S)-2-(3′-(hydroxymethyl)-1-methyl-5-((5-(2-methyl-4-(oxetan-3-yl)piperazin-1-yl)pyridin-2-yl)amino)-6-oxo-1,6-dihydro-[3,4′-bipyridin]-2′-yl)-9-isopropoxy-7,7-dimethyl-3,4,7,8-tetrahydro-2H-cyclopenta[4,5]pyrrolo[1,2-a]pyrazin-1(6H)-one]		0.65
CNc1c2c(n3c1C(=O)N(c1nccc(-c4cc(Nc5ccc(N6CCN(C7COC7)C[C@@H]6C)cn5)c(=O)n(C)c4)c1CO)CC3)CC(C)(C)C2 [Example H26, (S)-2-(3′-(hydroxymethyl)-1-methyl-5-((5-(2-methyl-4-(oxetan-3-yl)piperazin-1-yl)pyridin-2-yl)amino)-6-oxo-1,6-dihydro-[3,4′-bipyridin]-2′-yl)-9-methylamino-7,7-dimethyl-3,4,7,8-tetrahydro-2H-cyclopenta[4,5]pyrrolo[1,2-a]pyrazin-1(6H)-one]		0.46
C=CC(=O)N1CCC[C@@H](n2nc(-c3ccc(Oc4ccccc4)cc3)c3c(N)ncnc32)C1 [Ibrutinib, reference compound]	87	

Now from value to compound:

IC50 [1] [nM]	IC50 (BTK kinase) [nM]	SMILES
26	0.26	CC(C)n1cc(-c2ccnc(N3CCn4c(cc5c4CC(C)(C)C5)C3=O)c2CO)cc(Nc2ccc(N3CCN(C4COC4)C[C@@H]3C)cn2)c1=O [Example H04, (S)-2-(3′-(hydroxymethyl)-1-isopropyl-5-((5-(2-methyl-4-(oxetan-3-yl)piperazin-1-yl)pyridin-2-yl)amino)-6-oxo-1,6-dihydro-[3,4′-bipyridin]-2′-yl)-7,7-dimethyl-3,4,7,8-tetrahydro-2H-cyclopenta[4,5]pyrrolo[1,2-a]pyrazin-1(6H)-one]
23	0.69	C[C@H]1CN(C2COC2)CCN1c1ccc(Nc2cc(-c3cc(C#N)cc(N4CCn5c(cc6c5CC(C)(C)C6)C4=O)c3CO)cn(C)c2=O)nc1 [Example H05, (S)-3-(7,7-dimethyl-1-oxo-1,3,4,6,7,8-hexahydro-2H-cyclopenta [4,5]pyrrolo[1,2-a]pyrazin-2-yl)-4-(hydroxymethyl)-5-(1-methyl-5-((5-(2-methyl-4-(oxetan-3-yl)piperazin-1-yl)pyridin-2-yl)amino)-6-oxo-1,6-dihydropyridin-3-yl) benzonitrile]
31	0.41	C[C@H]1CN(C2COC2)CCN1c1ccc(Nc2cc(-c3ccc(C#N)c(N4CCn5c(cc6c5CC(C)(C)C6)C4=O)c3CO)cn(C)c2=O)nc1 [Example H06, (S)-2-(7,7-dimethyl-1-oxo-1,3,4,6,7,8-hexahydro-2H-cyclopenta [4,5]pyrrolo[1,2-a]pyrazin-2-yl)-3-(hydroxymethyl)-4-(1-methyl-5-((5-(2-methyl-4-(oxetan-3-yl)piperazin-1-yl)pyridin-2-yl)amino)-6-oxo-1,6-dihydropyridin-3-yl) benzonitrile]
40	0.38	C[C@H]1CN(C2COC2)CCN1c1ccc(Nc2cc(-c3c(C#N)ccc(N4CCn5c(cc6c5CC(C)(C)C6)C4=O)c3CO)cn(C)c2=O)nc1 [Example H07, (S)-4-(7,7-dimethyl-1-oxo-1,3,4,6,7,8-hexahydro-2H-cyclopenta [4,5]pyrrolo[1,2-a]pyrazin-2-yl)-3-(hydroxymethyl)-2-(1-methyl-5-((5-(2-methyl-4-(oxetan-3-yl)piperazin-1-yl)pyridin-2-yl)amino)-6-oxo-1,6-dihydropyridin-3-yl) benzonitrile]
	0.65	C[C@H]1CN(C2COC2)CCN1c1ccc(Nc2cc(-c3ccnc(N4CCn5c6c(c(C#N)c5C4=O)CC(C)(C)C6)c3CO)cn(C)c2=O)nc1 [Example H18, (S)-2-(3′-(hydroxymethyl)-1-methyl-5-((5-(2-methyl-4-(oxetan-3-yl)piperazin-1-yl)pyridin-2-yl)amino)-6-oxo-1,6-dihydro-[3,4′-bipyridin]-2′-yl)-7,7-dimethyl-1-oxo-1,3,4,6,7,8-hexahydro-2H-cyclopenta[4,5]pyrrolo[1,2-a]pyrazine-9-carbonitrile]
	0.44	C[C@H]1CN(C2COC2)CCN1c1ccc(Nc2cc(-c3ccnc(N4CCn5c6c(c(N)c5C4=O)CC(C)(C)C6)c3CO)cn(C)c2=O)nc1 [Example H25, (S)-9-amino-2-(3′-(hydroxymethyl)-1-methyl-5-((5-(2-methyl-4-(oxetan-3-yl)piperazin-1-yl)pyridin-2-yl)amino)-6-oxo-1,6-dihydro-[3,4′-bipyridin]-2′-yl)-7,7-dimethyl-3,4,7,8-tetrahydro-2H-cyclopenta[4,5]pyrrolo[1,2-a]pyrazin-1(6H)-one]
